Source: paper PMC5706701, “Development of a homogenous high-throughput assay for inositol hexakisphosphate kinase 1 activity” (PLoS ONE, 2017)
Structures can show the parent of a compound that is named as a salt. Where two headings read alike, the source gives them in different places.

Molecular target: T1, Human IP6K1 (Homo sapiens, UniProt Q92551)
T1 construct: GST (N, cleaved yes); made in house; host or cells: C43 E. coli, pGEX-6P-2
Assay: IP6K1 high-throughput screen of the Sigma LOPAC (ADP-Glo Max, single point);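 further: final compound concentration 10µM in 5% DMSO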
Type: biochemical

[1] = LOPAC single-point screen, ADP-Glo Max raw signal per well
[2] = LOPAC single-point screen, Z-score from raw signal with plate average and StDev
[3] = LOPAC single-point screen, Z-score against plate average and StDev
[4] = Sigma LOPAC single-point screen, ADP-Glo Max raw signal per well
[5] = Sigma LOPAC single-point screen, Z-score from plate average and StDev
[6] = LOPAC single-point screen, ADP-Glo Max luminescence raw signal per well
[7] = LOPAC single-point screen, Z-score relative to plate average and StDev
[8] = LOPAC single-point screen, Z-score from plate average and StDev

T1 sequence (Q92551 whole entry): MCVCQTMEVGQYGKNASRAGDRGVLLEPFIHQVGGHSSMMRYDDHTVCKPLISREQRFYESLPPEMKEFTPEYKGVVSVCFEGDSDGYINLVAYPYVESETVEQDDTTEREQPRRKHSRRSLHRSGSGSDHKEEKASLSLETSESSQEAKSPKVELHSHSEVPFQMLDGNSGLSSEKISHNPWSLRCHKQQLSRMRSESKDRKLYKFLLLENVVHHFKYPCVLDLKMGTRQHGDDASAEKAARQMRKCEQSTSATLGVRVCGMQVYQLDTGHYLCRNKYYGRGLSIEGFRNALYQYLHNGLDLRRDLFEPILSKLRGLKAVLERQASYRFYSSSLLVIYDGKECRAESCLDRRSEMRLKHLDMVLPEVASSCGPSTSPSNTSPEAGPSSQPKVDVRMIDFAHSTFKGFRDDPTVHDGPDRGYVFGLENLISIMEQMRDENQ

Cl.Clc1ccc(Cn2c(CN3CCCC3)nc3ccccc32)cc1 [Clemizole hydrochloride]
Raw Signal [1]: 56495 | Z-score [2]: -0.2498

Cn1c(=O)c2[nH]c(-c3ccccc3)nc2n(C)c1=O [1,3-Dimethyl-8-phenylxanthine]
Raw Signal [1]: 54517 | Z-score [3]: 0.02075

CC(C)Cc1ccc([C@H](C)C(=O)O)cc1 [S(+)-Ibuprofen]
Raw Signal [1]: 55445 | Z-score [3]: 0.1767

CC(N)(C(=O)O)c1ccc(C(=O)O)cc1 (racemic) [(±)-alpha-Methyl-4-carboxyphenylglycine]
Raw Signal [1]: 51961 | Z-score [2]: -0.4087

COc1ccccc1N1CCN(CCCNc2c(C)c(=O)n(C)c(=O)n2C)CC1 [Urapidil, 5-Methyl-]
Raw Signal [4]: 62058 | Z-score [5]: 1.172

N[C@@H](Cn1cc(I)c(=O)[nH]c1=O)C(=O)O [S-5-Iodowillardiine]
Raw Signal [1]: 55016 | Z-score [2]: -0.1958

Cl.Fc1ccc(CN(C2=NCCN2)c2c(Cl)cccc2Cl)cc1 [IMID-4F hydrochloride]
Raw Signal [4]: 60859 | Z-score [5]: 1.156

CCNC(=O)[C@H]1O[C@@H](n2cnc3c(N)ncnc32)[C@H](O)[C@@H]1O [5 -N-Ethylcarboxamidoadenosine]
Raw Signal [1]: 52988 | Z-score [2]: -0.4425

O=C(O)c1cc(O)cc(C(=O)O)n1 [Chelidamic acid]
Raw Signal [1]: 56074 | Z-score [2]: -0.3239

O=c1c2ccccc2nc2n1CCc1c-2[nH]c2ccccc12 [Rutaecarpine]
Raw Signal [1]: 54118 | Z-score [2]: -0.3703

NC/C=C/C(=O)O [(E)-4-amino-2-butenoic acid]
Raw Signal [6]: 52183 | Z-score [7]: -1.009

O=C(O)c1cc(=O)c2ccccc2[nH]1 [Kynurenic acid]
Raw Signal [1]: 53243 | Z-score [2]: -0.1933

O=C(O)c1ccccc1Nc1ccccc1 [N-Phenylanthranilic acid]
Raw Signal [4]: 63268 | Z-score [5]: 0.9431

O=c1[nH]c2cc(C(F)(F)F)ccc2n1-c1cc(C(F)(F)F)ccc1O [NS-1619]
Raw Signal [6]: 51434 | Z-score [7]: -0.4973

Oc1cccc2c(O)nccc12 [1,5-Isoquinolinediol]
Raw Signal [1]: 54537 | Z-score [3]: 0.02411

COc1cc(C[C@@H](C)N)c(OC)cc1I.Cl [( R)-(-)-DOI hydrochloride]
Raw Signal [1]: 54807 | Z-score [3]: -0.07312

CCOC(=O)C(C)(C)Oc1ccc(Cl)cc1 [Clofibrate]
Raw Signal [1]: 58171 | Z-score [3]: 0.04542

S(-)-UH-301 hydrochloride
Raw Signal [1]: 55198 | Z-score [2]: -0.1604

CN1C[C@H](CNC(=O)OCc2ccccc2)C[C@@H]2c3cccc4c3c(cn4C)C[C@H]21 [Metergoline]
Raw Signal [6]: 65696 | Z-score [8]: 1.899

NCC1(CC(=O)O)CCCCC1 [Gabapentin]
Raw Signal [6]: 51688 | Z-score [7]: -0.7066

CC[C@@]1(O)C(=O)OCc2c1cc1n(c2=O)Cc2cc3ccccc3nc2-1 [(S)-(+)-Camptothecin]
Raw Signal [4]: 58626 | Z-score [5]: 0.7025

O=C(NCC1CCCCN1)c1cc(OCC(F)(F)F)ccc1OCC(F)(F)F (centres unmarked) [Flecainide acetate]
Raw Signal [6]: 50763 | Z-score [7]: -0.8944

CN(C)c1nc(N(C)C)nc(N(C)C)n1 [Altretamine]
Raw Signal [6]: 69030 | Z-score [8]: 1.958

CNCCNS(=O)(=O)c1cccc2cnccc12.Cl.Cl [H-8 dihydrochloride]
Raw Signal [1]: 53425 | Z-score [2]: -0.1627

Nc1ccc(CCN2CCN(c3cccc(C(F)(F)F)c3)CC2)cc1 [PAPP]
Raw Signal [1]: 56132 | Z-score [3]: 0.02102

Nc1ccn([C@H]2CC[C@@H](CO)O2)c(=O)n1 [2 ,3 -dideoxycytidine]
Raw Signal [6]: 50390 | Z-score [7]: -0.9702

Cc1ccc(N(CC2=NCCN2)c2cccc(O)c2)cc1 [Phentolamine mesylate]
Raw Signal [1]: 54426 | Z-score [2]: -0.3104

Br.CCCN(CCC)[C@@H]1CCc2cccc(O)c2C1 [R-(+)-8-Hydroxy-DPAT hydrobromide]
Raw Signal [4]: 58179 | Z-score [5]: 0.6117

C[C@@H]1O[C@H](C[N+](C)(C)C)C[C@H]1O.[Cl-] (racemic) [(±)-Muscarine chloride]
Raw Signal [1]: 54548 | Z-score [3]: 0.02596

Cc1nnc2ccc(-c3cccc(C(F)(F)F)c3)nn12
Raw Signal [1]: 54310 | Z-score [3]: -0.01403

NCCc1ccc(O)c(O)c1 [Dopamine hydrochloride]
Raw Signal [6]: 44704 | Z-score [7]: -2.125

O=[N+]([O-])c1cccc2cn[nH]c12 [7-Nitroindazole]
Raw Signal [1]: 55532 | Z-score [3]: 0.1913

Br.C=CCN1CCc2c(cc(O)c(O)c2Cl)C(c2ccccc2)C1 (racemic) [(±)-Chloro-APB hydrobromide]
Raw Signal [4]: 58189 | Z-score [5]: 0.6137

CN/C(=N/CCSCc1nc[nH]c1C)NC#N [Cimetidine]
Raw Signal [4]: 62612 | Z-score [5]: 0.8276

CC(CN1c2ccccc2Sc2ccccc21)N(C)C (centres unmarked) [Promethazine hydrochloride]
Raw Signal [4]: 57662 | Z-score [5]: 0.5492

O=C(O)c1cc[c]([Hg][Cl])cc1 [4-Chloromercuribenzoic acid]
Raw Signal [1]: 56908 | Z-score [2]: -0.177

CCCCCCCCCCCCCCSCC(=O)O [Tetradecylthioacetic acid]
Raw Signal [1]: 56618 | Z-score [3]: 0.1154

Nc1nc2ccc(Cl)cc2c2nc(-c3ccco3)nn12 [CGS-15943]
Raw Signal: 60608 | Z-score: 1.105

NC(=O)c1cc(N2CC2)c([N+](=O)[O-])cc1[N+](=O)[O-] [CB 1954]
Raw Signal [1]: 55279 | Z-score [2]: -0.4639

Cl.Cl.NCCNS(=O)(=O)c1cccc2cnccc12 [H-9 dihydrochloride]
Raw Signal [4]: 64375 | Z-score [5]: 1.138

CCOC(=O)N1CCC(=C2c3ccc(Cl)cc3CCc3cccnc32)CC1 [Loratadine]
Raw Signal [6]: 49648 | Z-score [7]: -0.7974

CC1(C)CCC2=C(O1)c1ccccc1C(=O)C2=O [beta-Lapachone]
Raw Signal [1]: 54181 | Z-score [3]: -0.03571

CC1(C(=O)O)C2CCC(O2)C1(C)C(=O)O (centres unmarked) [Cantharidic Acid]
Raw Signal [4]: 61779 | Z-score [5]: 0.6809

CC(C)[C@@]1(NC(=O)[C@@H]2C=C3c4cccc5[nH]cc(c45)C[C@H]3N(C)C2)O[C@@]2(O)[C@@H]3CCCN3C(=O)[C@H](Cc3ccccc3)N2C1=O [Ergocristine]
Raw Signal [6]: 51436 | Z-score [7]: -0.7577

Cc1oncc1C(=O)Nc1ccc(C(F)(F)F)cc1 [Leflunomide]
Raw Signal [6]: 65933 | Z-score [8]: 1.939

Cc1nc(N=Nc2cc(S(=O)(=O)[O-])c3cc([N+](=O)[O-])cc(S(=O)(=O)[O-])c3c2)c(COP(=O)([O-])[O-])c(C=O)c1O.[Na+].[Na+].[Na+].[Na+] [PPNDS tetrasodium]
Raw Signal [6]: 31816 | Z-score [7]: -3.794

CCN1CCCC1CNC(=O)c1cc(S(N)(=O)=O)ccc1OC (racemic) [(±)-Sulpiride]
Raw Signal [6]: 63231 | Z-score [8]: 1.4

O=C(Nc1cccc(C(=O)Nc2ccc(S(=O)(=O)O)c3cc(S(=O)(=O)O)cc(S(=O)(=O)O)c23)c1)Nc1cccc(C(=O)Nc2ccc(S(=O)(=O)O)c3cc(S(=O)(=O)O)cc(S(=O)(=O)O)c23)c1 [NF 023]
Raw Signal [6]: 39481 | Z-score [7]: -2.506

Br.CCCN(CCC)C1CCc2cccc(O)c2C1 (racemic) [(±)-8-Hydroxy-DPAT hydrobromide]
Raw Signal [1]: 55597 | Z-score [3]: 0.08732

CN(C)CCC(c1ccccc1)c1ccccn1 (centres unmarked) [Pheniramine maleate]
Raw Signal [1]: 57488 | Z-score [3]: 0.2845

CCN1CCC[C@H]1CNC(=O)c1c(OC)ccc(I)c1O [S(-)-IBZM]
Raw Signal [6]: 51122 | Z-score [7]: -0.5497

O=c1onc2n1-c1cc(Br)ccc1OC2 [NS 2028]
Raw Signal [1]: 54790 | Z-score [3]: 0.06662

CC(C)NP(=O)(NC(C)C)OP(=O)(NC(C)C)NC(C)C [Tetraisopropyl pyrophosphoramide]
Raw Signal [1]: 57279 | Z-score [3]: 0.2439

CN1CCC(=C2c3ccccc3C=Cc3ccccc32)CC1 [Cyproheptadine hydrochloride]
Raw Signal [4]: 61620 | Z-score [5]: 0.6529

Br.COc1ccccc1N1CCN(CCCCN2C(=O)c3ccccc3C2=O)CC1 [NAN-190 hydrobromide]
Raw Signal [4]: 61226 | Z-score [5]: 1.148

CCn1cc(C(=O)[O-])c(=O)c2ccc(C)nc21.[Na+] [Nalidixic acid sodium]
Raw Signal [6]: 49665 | Z-score [7]: -0.7945

CC(C)C(=O)c1c(C(C)C)nn2ccccc12 [Ibudilast]
Raw Signal [1]: 53701 | Z-score [2]: -0.2977

N[C@H]1CON=C1O [L-Cycloserine]
Raw Signal [1]: 56773 | Z-score [2]: -0.2008

CC(=O)OCC1=C(C(=O)O)N2C(=O)[C@@H](NC(=O)CSc3ccncc3)[C@H]2SC1 [Cephapirin sodium]
Raw Signal [6]: 53491 | Z-score [7]: -0.7789

Nn1nnc2ccccc21 [1-Aminobenzotriazole]
Raw Signal [6]: 53212 | Z-score [7]: -0.828

Cc1nc2sccn2c(=O)c1CCN1CCC(=C(c2ccccc2)c2ccc(F)cc2)CC1 [Diacylglycerol kinase inhibitor I]
Raw Signal [4]: 59347 | Z-score [5]: 0.8489

C[N+]1(C)[C@@H]2C[C@@H](OC(=O)[C@H](CO)c3ccccc3)C[C@H]1[C@@H]1O[C@@H]12 [(-)-Scopolamine methyl bromide]
Raw Signal [1]: 55432 | Z-score [2]: -0.115

Brc1c(NC2=NCCN2)ccc2nccnc12 [UK 14,304]
Raw Signal: 53944 | Z-score: -0.4041

COc1ccc(/C=C/C(=O)Nc2ccccc2C(=O)O)cc1OC [Tranilast]
Raw Signal [6]: 68948 | Z-score [8]: 2.511
